Assays:
[1] = target: recombinant LBD of wildtype AR (wtAR); settings: read-out: Binding Ki; cited from earlier work
[2] = Metabolic stability in mouse liver microsomes (phase I and II)
[3] = system: Enzalutamide resistant VCaP (MDVR VCaP) xenograft; settings: cited from earlier work
UT-1355 TNBC PDX = test: TNBC patient-derived xenograft UT-1355 in NSG mice; assay type: in vivo, mouse; settings: for tumor volume at end: in mm³ (unit assumed)
[4] = system: FKBP5 gene expression in LNCaP cells; test: AR-target gene (FKBP5) expression in LNCaP cells, real-time PCR; assay type: cell-based, human; settings: R1881-induced, FIG. 3
[5] = system: AR and AR-V7-positive 22RV1 xenograft; test: 22RV1 xenograft in NSG mice; assay type: in vivo, mouse
[6] = Metabolic stability in rat liver microsomes (phase I and II); assay type: in vitro ADME; settings: for half-life at 1 µM: read-out: RLM T1/2
[7] = Metabolic stability in human liver microsomes (phase I and II); assay type: in vitro ADME
in vitro = settings: mouse, microsomes, pH 7.5
CMV-hAR = CMV-hAR (Homo sapiens, UniProt P10275); test: cell-based; settings: read-out: Wt. IC50
[8] = In vivo lethality observation; settings: 5 mg/kg
[9] = system: ventral prostate (VP) and seminal vesicle (SV) weights; test: Hershberger assay in intact rats; assay type: in vivo, rat
Description: FIGS. 7A and 7B depict that SARDs and pan-antagonists inhibited androgen-dependent organs in rats. FIGS. 7 A and 7B show the reduction of VP and SV weights following the treatment of intact rats with 20 mg/kg (mpk) po daily of antagonist or vehicle for 14 days (n=5/group). Rats were sacrificed at the end of the treatment period and weights of prostate and SVs were measured and normalized to body weight.
Male rats (6-8 weeks old) were randomized into groups based on body weight. Animals were sacrificed, prostate and seminal vesicles were weighed, and organ weights were normalized to body weight. Male rats (n=5/group) were left intact, for […]. […] Organ weights were normalized to body weight. […] The goal of the experiments was to find compounds with in vivo antiandrogen efficacies greater than 10.
Hershberger Assays. […] Rat ventral prostate (VP), seminal vesicle (SV), and levator ani (LA) muscle are AR-dependent tissues whose size (reflected by their weight) responds rapidly to castration.
Traditionally, agonists are dosed to prevent (whereby agonist is given upon castration) or restore (agonist is given after tissue atrophies) anabolic tissue weights [LA or other skeletal muscles and bone (the latter takes months not days to atrophy and restore)] to intact levels or greater, without increasing androgenic tissue (SV or VP) weights back to intact levels. […]

[10] = system: Enzalutamide resistant VCaP (MDVR VCaP) xenograft; test: Enz-R (MDVR) VCaP xenograft in intact SRG rats; assay type: in vivo, rat; settings: 10 mg/kg po daily, FIG. 8B
hAR-LBD (633-919) = target: T1, hAR-LBD (633-919) (Homo sapiens, UniProt P10275); test: Ligand binding assay (Ki), [3H]mibolerone competition (Table A)
T1 sequence (P10275 633-919): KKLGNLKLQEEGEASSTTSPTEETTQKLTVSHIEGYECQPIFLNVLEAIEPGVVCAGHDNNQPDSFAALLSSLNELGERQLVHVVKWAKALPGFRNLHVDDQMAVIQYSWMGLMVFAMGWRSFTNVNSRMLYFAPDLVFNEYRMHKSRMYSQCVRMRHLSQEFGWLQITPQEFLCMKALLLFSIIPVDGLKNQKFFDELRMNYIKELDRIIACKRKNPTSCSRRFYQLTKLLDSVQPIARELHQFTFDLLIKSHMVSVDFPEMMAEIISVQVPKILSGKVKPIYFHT

[11] = pH 7.5, MLM T1/2 (min), co-factors for phases I and II
[12] = rat, microsomes, pH 7.5, cofactors for phases I and II

Sequence of CMV-hAR (P10275 whole entry): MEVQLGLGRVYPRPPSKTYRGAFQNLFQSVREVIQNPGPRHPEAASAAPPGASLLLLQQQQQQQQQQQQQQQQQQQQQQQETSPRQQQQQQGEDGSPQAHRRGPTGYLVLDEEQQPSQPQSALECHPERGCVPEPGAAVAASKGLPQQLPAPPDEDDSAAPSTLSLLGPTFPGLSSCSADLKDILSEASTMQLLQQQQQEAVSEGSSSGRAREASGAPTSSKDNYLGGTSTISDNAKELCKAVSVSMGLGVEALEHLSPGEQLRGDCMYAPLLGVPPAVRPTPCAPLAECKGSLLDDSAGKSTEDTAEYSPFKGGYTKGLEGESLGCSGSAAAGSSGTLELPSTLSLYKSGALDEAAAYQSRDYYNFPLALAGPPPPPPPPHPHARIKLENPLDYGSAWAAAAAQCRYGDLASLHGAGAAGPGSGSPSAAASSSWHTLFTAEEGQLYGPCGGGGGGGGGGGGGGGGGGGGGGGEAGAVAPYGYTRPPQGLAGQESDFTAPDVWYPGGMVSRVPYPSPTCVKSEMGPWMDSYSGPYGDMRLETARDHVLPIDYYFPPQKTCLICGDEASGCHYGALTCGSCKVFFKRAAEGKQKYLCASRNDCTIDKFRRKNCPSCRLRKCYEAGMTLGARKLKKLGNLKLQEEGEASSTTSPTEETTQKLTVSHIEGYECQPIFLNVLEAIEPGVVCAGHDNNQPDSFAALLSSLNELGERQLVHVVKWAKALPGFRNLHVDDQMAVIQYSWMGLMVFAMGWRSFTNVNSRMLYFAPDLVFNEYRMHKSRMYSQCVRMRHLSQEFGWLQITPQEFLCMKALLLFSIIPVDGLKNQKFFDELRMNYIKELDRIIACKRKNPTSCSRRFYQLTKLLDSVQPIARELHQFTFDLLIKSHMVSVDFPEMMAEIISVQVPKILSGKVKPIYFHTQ

In the case of `CC(O)c1cc(C(=O)N[C@@H](C)Cn2ccc(-c3ccc(C#N)c(Cl)c3)n2)[nH]n1` (some centres unmarked) [6 (darolutamide), darolutamide], the Ki [1] is listed as 11 nM.

For `C[C@@](O)(Cn1cc(F)cn1)C(=O)Nc1ccc(C#N)c(C(F)(F)F)c1` [Compound 29a, (R)—N-(4-Cyano-3-(trifluoromethyl)phenyl)-3-(4-fluoro-1H-pyrazol-1-yl)-2-hydroxy-2-methylpropanamide], the half-life at 1 µM ([2]; pH 7.5) was ≥ 0.807 h.

For `C[C@](O)(Cn1cc(F)cn1)C(=O)Nc1ccc(C#N)c(C(F)(F)F)c1` [Compound 10, (S)—N-(4-Cyano-3-(trifluoromethyl)phenyl)-3-(4-fluoro-1H-pyrazol-1-yl)-2-hydroxy-2-methylpropanamide], the “dose required to achieve similar results (TGI)” value ([3]; previously published for 10) is listed as 20 to 30 mg/kg, the tumor volume at start (UT-1355 TNBC PDX; 60 mpk 21c, 10 60 mpk b.i.d) is listed as 427 mm³ and the “tumor volume at end” value (UT-1355 TNBC PDX; 60 mpk 21c, 10 60 mpk b.i.d) is listed as 1354.

In the case of `CNC(=O)c1ccc(N2C(=S)N(c3ccc(C#N)c(C(F)(F)F)c3)C(=O)C2(C)C)cc1F` [4 (enzalutamide), enzalutamide, reference compound], the “inhibition of FKBP5 expression” value [4] is given as “also inhibited expression of the FKBP5 but at a slightly lower potency”, the “effect in MDVR VCaP xenograft” value ([3]; not shown, previously published) is given as “failed to durably achieve any effect” and the “time to euthanasia criteria (Kaplan-Meier)” value ([5]; length>2 cm or volume>2000 mm^3, FIG. 12) is given as “reached euthanasia criteria earlier than the animals treated with 21c”. The “effect on 22RV1 xenograft growth” value ([5]; oral, NSG mice) was “failed to inhibit the growth” and the “time to euthanasia criteria (Kaplan-Meier)” value (UT-1355 TNBC PDX; enzalutamide 60 mpk, FIG. 15) was “reached euthanasia criteria earlier than the animals treated with 21c”.

With `C[C@](O)(Cn1cc(C#N)cn1)C(=O)Nc1cnc(C#N)c(C(F)(F)F)c1` [Compound 21c, (S)-3-(4-Cyano-1H-pyrazol-1-yl)-N-(6-cyano-5-(trifluoromethyl)pyridin-3-yl)-2-hydroxy-2-methylpropanamide] the “tumor volume at end” value ([5]; oral, NSG mice) was 1205 mm^3, the “tumor volume at start” value ([5]; oral, NSG mice) was 301 mm^3 and the “tumor volume inhibition (maximum)” value ([5]; oral, NSG mice, FIGS. 11A-11B) was 63%. The “growth inhibition of UT-1355 PDX” value (UT-1355 TNBC PDX; 60 mpk 21c, 10 60 mpk b.i.d) was “significantly inhibited the growth”, the tumor volume at start (UT-1355 TNBC PDX; 60 mpk 21c, 10 60 mpk b.i.d) was 227 mm³ and the “tumor volume at end” value (UT-1355 TNBC PDX; 60 mpk 21c, 10 60 mpk b.i.d) was 331.

For `C[C@](O)(Cn1cc(C(F)(F)F)cn1)C(=O)Nc1ccc(C#N)c(C(F)(F)F)c1` [Compound 16g, (S)—N-(4-Cyano-3-(trifluoromethyl)phenyl)-2-hydroxy-2-methyl-3-(4-(trifluoromethyl)-1H-pyrazol-1-yl)propanamide], the half-life at 1 µM [2, 11] was ≥ 0.807 h and the half-life at 1 µM [6, 12] was > 2 h.

In the case of `C[C@](O)(Cn1cc(F)cn1)C(=O)Nc1cnc(C#N)c(C(F)(F)F)c1` [Compound 21a], the “HLM CLint” value ([7]; 1 µM, pH 7.5) is reported as 0 µL/min/mg, the half-life at 1 µM (in vitro) is reported as ≥ 0.807 h and the “RLM CLint” value ([6]; rat, microsomes, 1 µM, pH 7.5) is reported as 0 µL/min/mg.

For `C[C@](O)(Cn1cc(F)cn1)C(=O)Nc1ccc(C#N)cc1Cl` [Compound 29i, (S)—N-(2-Chloro-4-Cyanophenyl)-3-(4-Fluoro-1H-Pyrazol-l-Yl)-2-Hydroxy-2-Methylpropanamide], the IC50 (CMV-hAR) was 1230 nM.

For `C[C@](O)(Cn1cc(Cl)cn1)C(=O)Nc1ccc(C#N)c(C(F)(F)F)c1` [Compound 16c, (S)-3-(4-Chloro-1H-pyrazol-1-yl)-N-(4-cyano-3-(trifluoromethyl)phenyl)-2-hydroxy-2-methylpropanamide], the “RLM T1/2” value ([6]; cofactors for phases I and II) was >2 h and the half-life at 1 µM [6, 12] was > 2 h.

With `C[C@](O)(Cn1ccc(C(F)(F)F)n1)C(=O)Nc1ccc(C#N)c(C(F)(F)F)c1` [Compound 16h, (S)—N-(4-Cyano-3-(trifluoromethyl)phenyl)-2-hydroxy-2-methyl-3-(3-(trifluoromethyl)-1H-pyrazol-1-yl)propanamide] the half-life at 1 µM [2, 11] was ≥ 0.807 h.

With `C[C@](O)(Cn1cc(C#N)cn1)C(=O)Nc1ccc(C#N)c(C(F)(F)F)c1` [Compound 16i, (S)-3-(4-Cyano-1H-pyrazol-1-yl)-N-(4-cyano-3-(trifluoromethyl)phenyl)-2-hydroxy-2-methylpropanamide] the lethality in vivo [8] was “lethality at 5 mg/kg”, the “toxicity in 20 mg/kg fixed dose screening Hershberger” value ([9]; 20 mg/kg, rats) was “toxic so no data” and the half-life at 1 µM [2, 11] was ≥ 0.807 h.

For `C[C@](O)(Cn1cc(Br)c(F)n1)C(=O)Nc1ccc(C#N)c(C(F)(F)F)c1` [Compound 26a, (S)-3-(4-Bromo-3-fluoro-1H-pyrazol-1-yl)-N-(4-cyano-3-(trifluoromethyl)phenyl)-2-hydroxy-2-methylpropanamide], the half-life at 1 µM ([7]; pH 7.5, cofactors for phases I and II, read-out: HLM T1/2) was > 2 h, the “tumor weights at the end of the study” value [10] was “significant inhibition” and the SV weight reduction ([9]; 20 mg/kg po daily, intact rats, FIG. 7B) was ~50%. The half-life at 1 µM [6, 12] was > 2 h.

For `C[C@](O)(Cn1cc(F)cn1)C(=O)Nc1ccc(C(N)=O)nc1` [Compound 21g, (S)-5-(3-(4-Fluoro-1H-pyrazol-1-yl)-2-hydroxy-2-methylpropanamido)picolinamide], the half-life at 1 µM ([2]; pH 7.5) was > 6 h.

For `C[C@](O)(Cn1ccc(F)n1)C(=O)Nc1ccc(C#N)c(C(F)(F)F)c1` [Compound 16b, (S)—N-(4-Cyano-3-(trifluoromethyl)phenyl)-3-(3-fluoro-1H-pyrazol-1-yl)-2-hydroxy-2-methylpropanamide], the half-life at 1 µM [2, 11] was ≥ 0.807 h.

In the case of `C[C@](O)(Cn1cc(-c2ccc(C#N)cc2)nn1)C(=O)Nc1ccc(C#N)c(C(F)(F)F)c1` [Compound 29o, (S)—N-(4-Cyano-3-(Trifluoromethyl)Phenyl)-3-(4-(4-Cyanophenyl)-1H-1,2,3-Triazol-1-Yl)-2-Hydroxy-2-Methylpropanamide], the IC50 (CMV-hAR) is reported as 62 nM and the Ki (hAR-LBD (633-919)) is reported as 1510 nM.

Molecule `Cc1c(NC(=O)[C@@](C)(O)Cn2cc(C#N)cn2)ccc(C#N)c1Cl` [Compound 29k, (S)—N-(3-Chloro-4-Cyano-2-Methylphenyl)-3-(4-Cyano-1H-Pyrazol-1-Yl)-2-Hydroxy-2-Methylpropanamide] has an IC50 (CMV-hAR) of 1700 nM.

With `C[C@](O)(Cn1cc(C#N)cn1)C(=O)Nc1ccc(C#N)cc1Cl` [Compound 29j, (S)—N-(2-chloro-4-cyanophenyl)-3-(4-cyano-1H-pyrazol-1-yl)-2-hydroxy-2-methylpropanamide] the IC50 (CMV-hAR) was 1120 nM.

From US20230115515A1, “PYRAZOLYLPROPANAMIDE COMPOUNDS AND USES THEREOF FOR TREATMENT OF PROSTATE CANCER” (priority 2020, published 2023)
